Reference: patent publication US20090311264A1, “Use of Disorazoles and Their Derivatives for the Treatment of Benign and Malignant Oncoses” (AEterna Zentaris GmbH, priority 2003, published 2009)
In brackets after ≈: the same amount, converted by molar mass. Entries after “also recorded” stand apart in the source; their conditions may differ. Like-named read-outs stand apart in the source and are kept apart here.

Key:
[1] = test system: lung carcinoma cell line NCI-H460; experiment: XTT proliferation assay, NCI-H460; format: cell-based, human; conditions: for EC50: Homo sapiens, NCI-H460, read-out: XTT proliferation assay, EC50, NCl-H460
From the text: (§1) The compounds according to the invention were investigated for their antiproliferative activity in a proliferation test on established tumor cell lines (D. A. Scuderio et al. Cancer Res. 1988, 48, 4827-4833). The test used determines the cellular dehydrogenase activity and makes possible a determination of the cell vitality and indirectly of the cell count. The cell lines used are the human cervical carcinoma cell line KB/HeLa (ATCC CCL17), the ovarian adenocarcinoma cell line SKOV-3 (ATCC HTB77), the human glioblastoma cell line SF-268 (NCI 503138), the lung carcinoma cell line NCI-H460 (NCI 503473) and the human colon adenocarcinoma cell line RKOP 27.

[2] = test system: ovarian adenocarcinoma cell line SKOV-3; experiment: XTT proliferation assay, SKOV-3; format: cell-based, human; conditions: for EC50: Homo sapiens, SK-OV-3, read-out: XTT proliferation assay, EC50, SKOV3
From the text: as §1

bovine β-tubulin = experiment: Inhibition of the polymerization of tubulin; format: biochemical; conditions: n = 2
Description: The substances were tested in an in-vitro test for inhibition of the polymerization of bovine β-tubulin (D. M. Bollag et al. Cancer Res. 1995, 55, 2325-2333). In this test, tubulin purified by cycles of polymerization and depolymerization is employed, and is polymerized by addition of GTP and warming. The EC50 values of the inhibition of polymerization of β-tubulin with and without 30% associated proteins (MAPs) are indicated in table 3.

[3] = test system: human glioblastoma cell line SF-268; experiment: XTT proliferation assay, SF-268; format: cell-based; conditions: for EC50: Homo sapiens
From the text: as §1

[4] = test system: human cervical carcinoma cell line KB/HeLa; experiment: XTT proliferation assay, KB/HeLa; format: cell-based; conditions: for EC50: Homo sapiens, HeLa
From the text: as §1

[5] = test system: human colon adenocarcinoma cell line RKOP 27; experiment: XTT proliferation assay, RKOP 27; format: cell-based
From the text: as §1

resistant line LT12/mdr = experiment: XTT proliferation test, LT12MDR (resistant); format: cell-based; conditions: for EC50: Rattus norvegicus, LT12
From the text: (§2) For further characterization, the substances according to the invention were investigated against multi-drug-resistant cell lines (MDR) in comparison to the nonresistant wild-type cell lines. The cell lines investigated are the acute myeloid leukemia cell line LT1 and the resistant line LT12/mdr. Moreover, the murine P388 cell line (methylcholanthrene-induced lymphoid neoplasm) and the doxorubicin-resistant P388 were used as test systems.

[6] = test system: acute myeloid leukemia cell line LT12; experiment: XTT proliferation test, LT12 (nonresistant); format: cell-based; conditions: for EC50: Rattus norvegicus
From the text: as §2

[7] = test system: doxorubicin-resistant P388; experiment: XTT proliferation test, P388ADR (resistant); format: cell-based, murine; conditions: for EC50: Mus musculus, P388
From the text: as §2

murine P388 cell line = experiment: XTT proliferation test, P388 (nonresistant); format: cell-based; conditions: for EC50: Mus musculus
From the text: as §2

KB/HeLa cells = experiment: Cell cycle analysis (G2/M arrest); format: cell-based, human; conditions: 24 hours at 37° C., read-out: EC50 (50% cells in G2/M)
[8] = test system: primary human hepatocytes; experiment: Survival of nonproliferating cells (alamarBlue); format: cell-based; conditions: 1 μM, n = 3
From the text: (§3) For the estimation of the possible side-effect potential, the influence of disorazole E1 on nonproliferating cells and on the protein biosynthesis was investigated (table 6).

[9] = test system: human hepatocellular carcinoma cells (HepG2); experiment: Protein synthesis (incorporation of 14C-methionine); format: cell-based; conditions: 1 μM, 14C-methionine incorporation, n = 2
From the text: as §3

[10] = test system: Salmonella typhimurium TA100; format: cell-based; conditions: for AMES TA100 with S9: with rat liver enzyme S9
Description: (§4) For the estimation of possible side effects, disorazole E1 was investigated for mutagenicity in a fluctuation assay against the mutant strains TA98 and TA100 of the bacterium Salmonella typhimurium at three concentrations (2.5; 5 and 10 μM). The mutagenicity investigations were further carried out in the presence of the rat liver enzyme S9.

[11] = test system: Salmonella typhimurium TA98; format: cell-based; conditions: for AMES TA98 with S9: with rat liver enzyme S9
Description: as §4

NCI-H460 tumor xenograft = experiment: In vivo therapy experiment, NCI-H460 tumor xenograft; set-up: species or system nude mice; conditions: for cases of death: n = 8 animals/group
Description: The in-vivo activity of the compounds according to the invention was tested on human and murine xenograft models.

## C/C=C/[C@H](O)C(C)(C)[C@@H]1C\C=C/C=C\C=C\[C@H](OC)Cc2nc(co2)C(=O)O[C@H](C(C)(C)[C@@H](O)/C=C/C)C/C=C\[C@H]2O[C@H]2/C=C/C=C\c2nc(co2)C(=O)O1 [Disorazole A1]
[1]
  XTT proliferation assay, EC50, NCl-H460: 0.15 ng/mL
[2]
  XTT proliferation assay, EC50, SKOV3: 0.2 ng/mL
Bovine β-tubulin
  Inhibition of the polymerization of β-tubulin, EC50 with 30% MAPs: 4800 ng/mL
[3]
  XTT proliferation assay, EC50, SF-268: 0.27 ng/mL
[4]
  XTT proliferation assay, EC50, KB/Hela: 0.15 ng/mL
[5]
  XTT proliferation assay, EC50, RKOP 27: 0.25 ng/mL

## CC(=O)O[C@H]1C(=O)[C@@]2(C)[C@H]([C@H](OC(=O)c3ccccc3)[C@]3(O)C[C@H](OC(=O)[C@H](O)[C@@H](NC(=O)c4ccccc4)c4ccccc4)C(C)=C1C3(C)C)[C@]1(OC(C)=O)CO[C@@H]1C[C@@H]2O [Paclitaxel]
[1]
  EC50: 10 ng/mL (≈ 0.0117 µM)
Resistant line LT12/mdr
  EC50: 340 ng/mL (≈ 0.398 µM)
[6]
  EC50: 5 ng/mL (≈ 0.00586 µM)
[7]
  EC50: > 3160 ng/mL
[2]
  EC50: 10 ng/mL (≈ 0.0117 µM)
Murine P388 cell line
  EC50: 35 ng/mL (≈ 0.041 µM)
[3]
  EC50: 10 ng/mL (≈ 0.0117 µM)
[4]
  EC50: 10 ng/mL (≈ 0.0117 µM)
KB/HeLa cells; Homo sapiens
  EC50: 46 nM

## CC[C@]1(O)C[C@@H]2CN(CCc3c([nH]c4ccccc34)[C@@](C(=O)OC)(c3cc4c(cc3OC)N(C)[C@H]3[C@@](O)(C(N)=O)[C@H](O)[C@]5(CC)C=CCN6CC[C@]43[C@@H]65)C2)C1 [Vindesine]
[1]
  EC50: 6 ng/mL (≈ 0.00796 µM)
Resistant line LT12/mdr
  EC50: 222 ng/mL (≈ 0.294 µM)
[6]
  EC50: 0.9 ng/mL (≈ 0.00119 µM)
[7]
  EC50: 940 ng/mL (≈ 1.25 µM)
[2]
  EC50: 2 ng/mL (≈ 0.00265 µM)
Murine P388 cell line
  EC50: 9 ng/mL (≈ 0.0119 µM)
Bovine β-tubulin
  Inhibition of the polymerization of β-tubulin, EC50 with 30% MAPs: 400 ng/mL
[3]
  EC50: 5 ng/mL (≈ 0.00663 µM)
[4]
  EC50: 2 ng/mL (≈ 0.00265 µM)
KB/HeLa cells; Homo sapiens
  EC50: 3 nM

## C/C=C/C(O)C(C)(C)C1C/C=C\C2OC2C=CC(OC)Cc2nc(co2)C(=O)OC(C(C)(C)C(O)/C=C/C)C/C=C\C2OC2/C=C\C=Cc2nc(co2)C(=O)O1 (centres unmarked) [Disorazole E1]
[8]
  Surviving cells, primary human hepatocytes, Average, % of control: 119.6 % of control
[9]
  Protein synthesis, Average, % of control: 95.9 % of control
[1]
  XTT proliferation assay, EC50, NCl-H460: 0.04 ng/mL
Resistant line LT12/mdr
  XTT proliferation assay, EC50, LT12MDR: 4 ng/mL
[6]
  XTT proliferation assay, EC50, LT12: 0.1 ng/mL
[10]; 2.5 μM
  AMES TA100 with S9: inactive
  AMES TA100 without S9: inactive
[10]; 5 μM
  AMES TA100 with S9: inactive
  AMES TA100 without S9: inactive
[10]; 10 μM
  AMES TA100 with S9: inactive
  AMES TA100 without S9: inactive
[11]; 2.5 μM
  AMES TA98 with S9: inactive
  AMES TA98 without S9: inactive
[11]; 5 μM
  AMES TA98 with S9: inactive
  AMES TA98 without S9: inactive
[11]; 10 μM
  AMES TA98 with S9: inactive
  AMES TA98 without S9: inactive
[11]; TA98 and TA100, with and without S9, 2.5, 5 and 10 μM
  AMES test, overall result: AMES test-inactive
[7]
  XTT proliferation assay, EC50, P388ADR: 1 ng/mL
[2]
  XTT proliferation assay, EC50, SKOV3: 0.02 ng/mL
Murine P388 cell line
  XTT proliferation assay, EC50, P388: 0.4 ng/mL
Bovine β-tubulin
  Inhibition of the polymerization of β-tubulin, EC50 with 30% MAPs: 1500 ng/mL
[3]
  XTT proliferation assay, EC50, SF-268: 0.17 ng/mL
NCI-H460 tumor xenograft; 0.05 mg/kg, i.v.: day 0, 7, 14
  cases of death: 0.05 mg/kg; i.v.: day 0, 7, 14; no cases of
NCI-H460 tumor xenograft; 0.1 mg/kg, i.v.: day 0, 7, 14
  cases of death: 0.1 mg/kg; i.v.: day 0, 7, 14; no cases of
NCI-H460 tumor xenograft; 0.25 mg/kg, i.v.: day 0, 7, dead on day 11, 12, 13
  cases of death: 0.25 mg/kg; i.v.: day 0, 7; 8 dead (day
NCI-H460 tumor xenograft; i.v., NCI-H460 xenograft-bearing nude mice, at doses without weight decrease or mortality
  reduction of the tumor growth: significant reduction in tumor growth; also recorded: significant reduction of the tumor growth
NCI-H460 tumor xenograft; i.v., at doses reducing tumor growth
  weight decrease: no significant weight decrease
[4]
  XTT proliferation assay, EC50, KB/Hela: 0.07 ng/mL
[5]
  XTT proliferation assay, EC50, RKOP 27: 0.06 ng/mL
KB/HeLa cells
  EC50: 1.6 nM
